# Measured values: patent US20060189682A1, “Water soluble prodrugs of COX-2 inhibitors” (priority 2005, published 2006)
# Where two headings read alike, the source gives them in different places.
# Columns and labels:
# [1] = Solubility in deionized water @ 25° C.; format: physicochemical
# Protocol: (§1) The physiochemical properties of Examples 1-6 and their ability to behave as pro-drugs and release in vivo the parent drug (the desired COX-2 inhibitor 5(S)-ethyl-3-isopropoxy-4-(4-methanesulfonylphenyl)-5-methyl-5H-furan-2-one) were examined. […] To ascertain the rates of conversion of the pro-drugs in vivo, the compounds were dosed as a saline solution of the salt form (except for 1, which was dosed in a PEG-400 solution) in Sprague-Dawley rats at 2 mg/kg intravenously. Plasma levels were measured for levels of the respective pro-drug and the desired COX-2 inhibitor at 5, 15, 30, and 60 min time points. The plasma levels measured at 30 minutes are given below (Table 1).
# [2] = Plasma levels of pro-drug and desired COX-2 inhibitor after i.v. dosing in Sprague-Dawley rats; format: in vivo; details: for Levels of pro-drug in vivo / In vivo conversion to parent drug in plasma / Pharmacokinetic characteristics: 2 mg/kg i.v.; for Levels of pro-drug in vivo: rat model; for In vivo conversion to parent drug in plasma / Pharmacokinetic characteristics / concentration at 30 min: rat; for In vivo conversion to parent drug in plasma: plasma at 30 min; for concentration at 30 min: iv, plasma, 2 mg/kg i.v. dose of pro-drug, Sprague-Dawley rats, value @ 30 min, read-out: Levels of Pro-Drug @ 0.5 hr
# Protocol: as §1
# [3] = Stability of 4 mg/mL solution in water, judged @ 24 hr by LC-MS/HPLC; format: physicochemical; details: after 24 hr in water, HPLC analysis
# Protocol: as §1
# [4] = background statement; cited from earlier work
# infarct volume = details: MCAO stroke model; cited from earlier work
# [5] = deionized water, 25 °C, water, read-out: Solubility
# [6] = saline solution of the salt form
Compound,"solubility [1, 5]",In vivo conversion to parent drug in plasma [2],Pharmacokinetic characteristics [2],other results
"CC[C@]1(C)O/C(=N\[C@@H](CO)C(=O)[O-])C(OC(C)C)=C1c1ccc(S(C)(=O)=O)cc1.[K+] [Example 4, N-[(5S)-5-ethyl-3-isopropoxy-5-methyl-4-[4-(methylsulfonyl)phenyl]furan-2(5H)-ylidene]-L-serine potassium salt]",> 10000 µg/mL,failed to give appreciable amounts of the parent drug,,solubility ([1]; potassium salt): >20000 µg/mL; Levels of pro-drug in vivo [2]: dropped rapidly
"CC[C@]1(C)OC2(OCC(CO)O2)C(OC(C)C)=C1c1ccc(S(C)(=O)=O)cc1 (stereo partly drawn) [Example 1, {(7S)-7-ethyl-9-isopropoxy-7-methyl-8-[4-(methylsulfonyl)phenyl]-1,4,6-trioxaspiro[4.4]non-8-en-2-yl}methanol]",< 1000 µg/mL,converted to yield appreciable levels of the parent drug,superior pharmacokinetic characteristics,solubility [1]: <1000 µg/mL; concentration at 30 min ([2]; dosed in PEG-400 solution): 1400 nM
"CC[C@]1(C)OC2(OCC(COC(=O)CCC(=O)[O-])O2)C(OC(C)C)=C1c1ccc(S(C)(=O)=O)cc1.[Na+] (stereo partly drawn) [Example 2, Sodium 4-({(7S)-7-ethyl-9-isopropoxy-7-methyl-8-[4-(methylsulfonyl)phenyl]-1,4,6-trioxaspiro[4.4]non-8-en-2-yl}methoxy)-4-oxobutanoate]",2000 µg/mL,converted to yield appreciable levels of the parent drug,superior pharmacokinetic characteristics,"concentration at 30 min [2, 6]: < 100 nM"
"CC[C@]1(C)O/C(=N\OCC(=O)[O-])C(OC(C)C)=C1c1ccc(S(C)(=O)=O)cc1.[Na+] [Example 6, [[[(5S)-5-ethyl-5-methyl-3-(1-methylethoxy)-4-[4-(methylsulfonyl)phenyl]-2(5H)-furanylidene]amino]oxy]acetic acid sodium salt]",> 10000 µg/mL,failed to give appreciable amounts of the parent drug,,solubility ([1]; sodium salt): 10000 µg/mL; Levels of pro-drug in vivo [2]: dropped rapidly
CC[C@@]1(C)OC2(OC[C@@H]([C@H]3OC(=O)C(O)=C3[O-])O2)C(OC(C)C)=C1c1ccc(S(C)(=O)=O)cc1.[Na+] (stereo partly drawn) [Example 5],> 10000 µg/mL,,superior pharmacokinetic characteristics,solubility ([1]; monosodium salt): >20000 µg/mL; Stability in solution [3]: rapid decomposition
"CC[C@]1(C)OC2(OCC(COP(=O)([O-])OCC[N+](C)(C)C)O2)C(OC(C)C)=C1c1ccc(S(C)(=O)=O)cc1 (stereo in doubt) [Example 3, 2-{[({(2R,7S)-7-ethyl-9-isopropoxy-7-methyl-8-[4-(methylsulfonyl)phenyl]-1,4,6-trioxaspiro[4.4]non-8-en-2-yl}methoxy)(hydroxy)phosphoryl]oxy}-N,N,N-trimethylethanaminium]",> 10000 µg/mL,,superior pharmacokinetic characteristics,"solubility [1]: >20000 µg/mL; concentration at 30 min [2, 6]: 200 nM"
"CC[C@]1(C)OC(=O)C(OC(C)C)=C1c1ccc(S(C)(=O)=O)cc1 [parent drug, 5(S)-ethyl-3-isopropoxy-4-(4-methanesulfonylphenyl)-5-methyl-5H-furan-2-one]",,,,Water solubility [4]: poor water solubility; Infarct volume (infarct volume): reduction in infarct volume
